According to US20200086049A1, “Kit For Treating or Relieving Pain at Incision Site Following Surgical Procedure” (GENEWEL CO., LTD., priority 2017, published 2020):

Assay: precipitation test for drug-containing mixture solutions
Assay type: physicochemical
Details: mixture solution containing crosslinked temperature-responsive viscous solution (DDK Gel: poloxamer and crosslinked alginate), FIG. 7
Excerpt: In FIG. 7, DDK Gel means a gel composed of poloxamer and crosslinked alginate.

Row | precipitate formation | Molecule
1 | formed a precipitate | CC(C)Cc1ccc(C(C)C(=O)O)cc1 (centres unmarked) [ibuprofen]
2 | sodium alginate was precipitated | gentamicin
